Results taken from article PMC4338257 (Drug Design, Development and Therapy, 2015).

Molecular target: human ether-à-go-go-related gene (hERG) channel (Kv11.1) (Homo sapiens, UniProt Q12809)
Experiment: whole-cell patch clamp in HEK […] cells stably expressing hERG
Format: cell-based

Chain of human ether-à-go-go-related gene (hERG) channel (Kv11.1) (Q12809 whole entry): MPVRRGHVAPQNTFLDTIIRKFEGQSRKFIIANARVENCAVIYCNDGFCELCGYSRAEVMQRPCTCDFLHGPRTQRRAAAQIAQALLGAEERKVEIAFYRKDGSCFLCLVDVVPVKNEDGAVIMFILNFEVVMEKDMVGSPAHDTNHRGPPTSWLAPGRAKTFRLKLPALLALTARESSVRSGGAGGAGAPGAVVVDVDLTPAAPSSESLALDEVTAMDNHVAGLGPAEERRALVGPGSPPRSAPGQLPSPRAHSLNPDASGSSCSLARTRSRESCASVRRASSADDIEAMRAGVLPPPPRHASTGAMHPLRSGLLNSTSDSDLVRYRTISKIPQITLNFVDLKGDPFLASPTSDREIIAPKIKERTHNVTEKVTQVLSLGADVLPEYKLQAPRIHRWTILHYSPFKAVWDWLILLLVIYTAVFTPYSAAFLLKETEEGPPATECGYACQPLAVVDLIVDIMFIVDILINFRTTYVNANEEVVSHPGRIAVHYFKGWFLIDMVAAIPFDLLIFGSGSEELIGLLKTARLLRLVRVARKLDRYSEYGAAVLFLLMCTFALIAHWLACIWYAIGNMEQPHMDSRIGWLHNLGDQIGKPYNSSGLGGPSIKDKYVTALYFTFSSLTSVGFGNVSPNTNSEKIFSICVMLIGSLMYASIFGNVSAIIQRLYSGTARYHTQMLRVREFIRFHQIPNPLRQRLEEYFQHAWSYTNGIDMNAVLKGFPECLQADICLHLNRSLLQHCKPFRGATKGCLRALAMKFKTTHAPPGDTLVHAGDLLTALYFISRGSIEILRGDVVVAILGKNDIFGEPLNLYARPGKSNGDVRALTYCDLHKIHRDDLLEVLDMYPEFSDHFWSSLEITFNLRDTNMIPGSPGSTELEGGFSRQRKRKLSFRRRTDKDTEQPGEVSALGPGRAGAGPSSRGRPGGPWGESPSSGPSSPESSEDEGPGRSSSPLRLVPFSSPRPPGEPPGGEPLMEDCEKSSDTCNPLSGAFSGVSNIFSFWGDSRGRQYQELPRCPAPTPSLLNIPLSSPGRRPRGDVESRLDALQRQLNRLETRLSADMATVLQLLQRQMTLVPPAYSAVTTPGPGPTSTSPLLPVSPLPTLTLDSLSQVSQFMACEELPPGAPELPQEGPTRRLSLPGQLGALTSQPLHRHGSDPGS

Cc1ncc2n1-c1ccc(Cl)cc1C(c1ccccc1F)=NC2 [midazolam]
IC50: 13.6 µM
